What all share (test): SelectScreen Kinase Profiling, single point inhibition and IC50 for off-target kinases
Holding throughout (format): biochemical

The target in assay [1] is T1, off-target kinases (Homo sapiens, UniProt O00141).
T1 sequence (O00141 1-431): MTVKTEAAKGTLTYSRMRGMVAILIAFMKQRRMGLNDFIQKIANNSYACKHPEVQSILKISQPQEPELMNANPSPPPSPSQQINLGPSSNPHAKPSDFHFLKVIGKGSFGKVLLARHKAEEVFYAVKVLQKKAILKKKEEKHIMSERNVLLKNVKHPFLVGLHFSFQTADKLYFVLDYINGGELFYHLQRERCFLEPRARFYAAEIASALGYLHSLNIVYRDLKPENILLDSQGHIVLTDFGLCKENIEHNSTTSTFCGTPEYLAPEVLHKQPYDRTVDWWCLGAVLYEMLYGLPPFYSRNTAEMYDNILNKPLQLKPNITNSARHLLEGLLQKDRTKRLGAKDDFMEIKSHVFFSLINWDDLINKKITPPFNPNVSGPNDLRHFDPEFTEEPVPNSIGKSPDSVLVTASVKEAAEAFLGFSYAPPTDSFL
The note with it: SGK (SGK1), ZLYTE, ATP Km app.

Assay [2] concerns the target off-target kinases (Homo sapiens, UniProt O00418).
Assay [3] concerns the target off-target kinases (Homo sapiens, UniProt P31749). The note with it: AKT1 (PKB alpha), ZLYTE, ATP Km app.
For assay [4], the target named is off-target kinases (Homo sapiens, UniProt Q13705). Particulars: ACVR2B, LanthaScreen Binding. (TR-FRET usually uses a lanthanide donor and a delayed reading to cut background.)
Chain of off-target kinases (Homo sapiens, UniProt Q13705) (Q13705 19-512): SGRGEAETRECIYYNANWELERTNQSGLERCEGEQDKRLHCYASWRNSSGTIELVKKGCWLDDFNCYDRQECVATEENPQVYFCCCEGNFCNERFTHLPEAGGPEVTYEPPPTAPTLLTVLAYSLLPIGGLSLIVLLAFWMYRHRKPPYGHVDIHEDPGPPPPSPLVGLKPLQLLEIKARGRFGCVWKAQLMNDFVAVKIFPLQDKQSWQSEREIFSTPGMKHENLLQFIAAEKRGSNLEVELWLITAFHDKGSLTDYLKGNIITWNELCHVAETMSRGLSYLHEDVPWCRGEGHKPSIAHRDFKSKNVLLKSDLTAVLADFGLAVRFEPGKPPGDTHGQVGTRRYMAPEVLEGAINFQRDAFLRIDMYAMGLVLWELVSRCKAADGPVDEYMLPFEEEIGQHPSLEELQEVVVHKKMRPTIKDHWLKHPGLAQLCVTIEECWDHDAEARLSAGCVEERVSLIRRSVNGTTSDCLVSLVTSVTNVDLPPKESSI
Assay [5] concerns the target off-target kinases (Homo sapiens, UniProt Q9H422). Particulars: HIPK3 (YAK1), ZLYTE, ATP Km app.
In assay [6] the target is off-target kinases (Homo sapiens, UniProt Q9NYL2). Particulars: ZAK, LanthaScreen Binding.
Chain of off-target kinases (Homo sapiens, UniProt Q9NYL2) (Q9NYL2 whole entry): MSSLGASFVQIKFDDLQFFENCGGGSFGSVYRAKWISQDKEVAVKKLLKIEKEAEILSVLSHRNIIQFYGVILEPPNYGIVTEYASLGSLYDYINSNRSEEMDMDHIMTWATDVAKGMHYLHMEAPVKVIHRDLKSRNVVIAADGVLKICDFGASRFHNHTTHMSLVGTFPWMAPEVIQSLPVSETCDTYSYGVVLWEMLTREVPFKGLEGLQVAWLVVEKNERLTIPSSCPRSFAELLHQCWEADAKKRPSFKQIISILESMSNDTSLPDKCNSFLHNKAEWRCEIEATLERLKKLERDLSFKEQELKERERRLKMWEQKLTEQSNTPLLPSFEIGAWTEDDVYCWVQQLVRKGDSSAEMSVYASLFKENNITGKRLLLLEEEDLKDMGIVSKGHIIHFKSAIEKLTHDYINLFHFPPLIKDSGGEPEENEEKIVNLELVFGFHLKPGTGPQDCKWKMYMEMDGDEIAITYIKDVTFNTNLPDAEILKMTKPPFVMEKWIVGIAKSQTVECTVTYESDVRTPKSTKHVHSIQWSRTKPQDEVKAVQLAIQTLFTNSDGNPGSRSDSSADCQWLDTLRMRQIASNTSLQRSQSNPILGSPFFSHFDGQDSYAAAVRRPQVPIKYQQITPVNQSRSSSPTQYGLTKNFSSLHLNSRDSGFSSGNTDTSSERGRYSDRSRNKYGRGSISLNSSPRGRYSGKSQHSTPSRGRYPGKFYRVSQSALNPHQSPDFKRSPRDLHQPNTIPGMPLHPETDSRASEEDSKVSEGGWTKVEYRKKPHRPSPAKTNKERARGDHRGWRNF
In assay [7] the target is off-target kinases (Homo sapiens, UniProt Q9UKE5). The note with it: TNIK, LanthaScreen Binding.
Chain of off-target kinases (Homo sapiens, UniProt Q9UKE5) (Q9UKE5 whole entry): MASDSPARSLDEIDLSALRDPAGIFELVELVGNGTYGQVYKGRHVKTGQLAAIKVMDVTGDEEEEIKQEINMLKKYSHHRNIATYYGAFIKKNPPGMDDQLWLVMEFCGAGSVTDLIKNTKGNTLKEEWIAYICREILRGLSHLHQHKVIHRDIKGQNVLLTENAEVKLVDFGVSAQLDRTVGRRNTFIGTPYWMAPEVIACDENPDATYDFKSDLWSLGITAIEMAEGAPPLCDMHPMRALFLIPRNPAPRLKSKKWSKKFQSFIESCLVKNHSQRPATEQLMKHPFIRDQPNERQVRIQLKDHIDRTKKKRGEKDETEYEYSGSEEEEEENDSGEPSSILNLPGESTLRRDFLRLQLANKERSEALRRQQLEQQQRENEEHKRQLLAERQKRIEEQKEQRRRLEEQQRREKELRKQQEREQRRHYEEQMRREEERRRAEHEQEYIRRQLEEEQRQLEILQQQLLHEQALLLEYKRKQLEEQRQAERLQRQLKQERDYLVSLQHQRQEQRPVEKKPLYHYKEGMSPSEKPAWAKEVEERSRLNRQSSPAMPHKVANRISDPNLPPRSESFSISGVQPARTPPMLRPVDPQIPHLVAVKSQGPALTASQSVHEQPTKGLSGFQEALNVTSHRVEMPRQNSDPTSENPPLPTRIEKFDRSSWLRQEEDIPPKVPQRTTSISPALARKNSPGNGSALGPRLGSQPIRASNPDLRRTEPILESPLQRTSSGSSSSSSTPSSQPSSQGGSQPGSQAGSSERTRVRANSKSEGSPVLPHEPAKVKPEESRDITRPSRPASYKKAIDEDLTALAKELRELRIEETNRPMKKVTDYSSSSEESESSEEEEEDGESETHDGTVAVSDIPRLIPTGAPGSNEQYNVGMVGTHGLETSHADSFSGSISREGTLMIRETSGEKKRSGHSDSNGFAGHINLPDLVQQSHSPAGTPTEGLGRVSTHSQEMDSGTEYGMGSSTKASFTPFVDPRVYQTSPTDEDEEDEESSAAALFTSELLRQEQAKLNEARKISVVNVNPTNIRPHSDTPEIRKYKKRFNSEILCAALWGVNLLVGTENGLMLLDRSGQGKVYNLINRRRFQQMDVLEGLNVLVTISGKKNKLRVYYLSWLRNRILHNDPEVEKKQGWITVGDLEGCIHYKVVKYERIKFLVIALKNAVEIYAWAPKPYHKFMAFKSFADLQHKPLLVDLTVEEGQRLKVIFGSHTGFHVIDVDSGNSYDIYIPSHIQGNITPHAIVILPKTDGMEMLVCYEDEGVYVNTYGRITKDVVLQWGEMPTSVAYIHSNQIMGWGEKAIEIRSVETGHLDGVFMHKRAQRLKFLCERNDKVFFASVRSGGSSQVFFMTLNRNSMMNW

Molecules are shown by their SMILES. Read-outs that look alike come from different tables or passages of the source.

The record followed here is US11572590B2, “Methods for evaluating tumor cell spheroids using 3D microfluidic cell culture device” (Dana-Farber Cancer Institute, Inc., priority 2017, dated 2023).

What is called inhibition is the drop in the measured response relative to a control, in per cent.

Chain of off-target kinases (Homo sapiens, UniProt Q9H422) (Q9H422 whole entry): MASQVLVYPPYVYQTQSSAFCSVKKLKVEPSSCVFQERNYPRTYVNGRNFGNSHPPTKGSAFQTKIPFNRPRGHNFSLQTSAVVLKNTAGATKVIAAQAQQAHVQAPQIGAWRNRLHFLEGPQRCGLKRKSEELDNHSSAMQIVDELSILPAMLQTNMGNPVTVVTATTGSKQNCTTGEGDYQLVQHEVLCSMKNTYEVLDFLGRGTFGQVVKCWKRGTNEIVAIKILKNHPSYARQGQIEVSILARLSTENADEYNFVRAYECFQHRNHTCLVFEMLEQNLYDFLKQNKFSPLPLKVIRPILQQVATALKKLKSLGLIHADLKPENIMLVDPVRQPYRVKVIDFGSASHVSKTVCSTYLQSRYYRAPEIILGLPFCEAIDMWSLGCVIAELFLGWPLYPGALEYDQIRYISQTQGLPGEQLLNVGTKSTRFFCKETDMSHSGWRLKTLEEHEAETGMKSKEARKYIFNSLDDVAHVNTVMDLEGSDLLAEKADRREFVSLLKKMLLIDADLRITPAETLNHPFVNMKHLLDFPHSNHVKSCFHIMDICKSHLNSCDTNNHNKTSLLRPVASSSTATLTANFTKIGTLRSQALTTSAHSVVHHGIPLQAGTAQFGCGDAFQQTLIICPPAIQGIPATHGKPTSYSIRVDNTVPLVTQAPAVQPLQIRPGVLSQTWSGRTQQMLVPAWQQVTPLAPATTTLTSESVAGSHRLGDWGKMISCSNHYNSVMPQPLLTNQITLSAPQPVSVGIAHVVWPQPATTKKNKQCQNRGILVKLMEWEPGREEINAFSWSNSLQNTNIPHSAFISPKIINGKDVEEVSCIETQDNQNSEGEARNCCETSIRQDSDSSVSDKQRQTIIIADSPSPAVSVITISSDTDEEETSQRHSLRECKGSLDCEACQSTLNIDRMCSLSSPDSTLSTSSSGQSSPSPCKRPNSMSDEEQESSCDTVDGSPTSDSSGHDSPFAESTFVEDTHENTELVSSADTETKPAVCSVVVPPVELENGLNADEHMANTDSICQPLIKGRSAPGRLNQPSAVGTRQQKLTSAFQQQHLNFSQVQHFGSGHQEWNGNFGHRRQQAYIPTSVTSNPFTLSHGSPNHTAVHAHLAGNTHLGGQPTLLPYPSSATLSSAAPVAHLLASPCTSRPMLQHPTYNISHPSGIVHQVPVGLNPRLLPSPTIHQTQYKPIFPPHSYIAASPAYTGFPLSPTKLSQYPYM
Chain of off-target kinases (Homo sapiens, UniProt P31749) (P31749 whole entry): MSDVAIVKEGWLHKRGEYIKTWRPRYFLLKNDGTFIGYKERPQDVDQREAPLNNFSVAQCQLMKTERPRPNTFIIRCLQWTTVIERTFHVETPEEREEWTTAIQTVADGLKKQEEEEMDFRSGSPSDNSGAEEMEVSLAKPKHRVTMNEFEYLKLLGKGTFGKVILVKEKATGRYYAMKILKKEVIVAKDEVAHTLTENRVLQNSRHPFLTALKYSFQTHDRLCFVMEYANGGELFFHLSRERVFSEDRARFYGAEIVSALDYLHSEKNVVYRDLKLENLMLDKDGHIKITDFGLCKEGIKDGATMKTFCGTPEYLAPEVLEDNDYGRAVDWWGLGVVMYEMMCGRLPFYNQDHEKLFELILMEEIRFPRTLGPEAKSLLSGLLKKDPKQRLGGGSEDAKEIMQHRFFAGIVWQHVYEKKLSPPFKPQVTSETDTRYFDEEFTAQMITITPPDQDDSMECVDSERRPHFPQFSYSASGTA
Chain of off-target kinases (Homo sapiens, UniProt O00418) (O00418 whole entry): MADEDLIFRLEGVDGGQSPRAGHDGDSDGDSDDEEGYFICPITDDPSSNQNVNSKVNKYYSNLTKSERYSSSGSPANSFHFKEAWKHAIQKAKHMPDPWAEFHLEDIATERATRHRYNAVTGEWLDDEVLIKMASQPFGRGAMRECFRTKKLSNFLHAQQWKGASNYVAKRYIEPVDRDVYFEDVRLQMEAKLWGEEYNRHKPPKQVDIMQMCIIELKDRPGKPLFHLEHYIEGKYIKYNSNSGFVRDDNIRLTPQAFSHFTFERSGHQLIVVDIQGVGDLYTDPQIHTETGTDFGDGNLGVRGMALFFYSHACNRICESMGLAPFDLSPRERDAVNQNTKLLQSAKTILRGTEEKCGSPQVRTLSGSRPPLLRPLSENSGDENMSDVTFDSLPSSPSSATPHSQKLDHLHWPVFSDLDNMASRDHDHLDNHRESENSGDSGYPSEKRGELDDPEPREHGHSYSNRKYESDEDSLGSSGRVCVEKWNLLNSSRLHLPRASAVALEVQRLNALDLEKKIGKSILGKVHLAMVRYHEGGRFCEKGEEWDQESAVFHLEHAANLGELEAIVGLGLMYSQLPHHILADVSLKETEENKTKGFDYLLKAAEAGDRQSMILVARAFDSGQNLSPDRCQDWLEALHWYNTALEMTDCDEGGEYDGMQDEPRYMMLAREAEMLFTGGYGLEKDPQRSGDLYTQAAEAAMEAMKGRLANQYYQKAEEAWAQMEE

`N#Cc1cc(-c2ncnc(Nc3ccc(N4CCN(C5COC5)CC4)cc3)n2)ccc1OC1CCOCC1` [Compound 1, 5-(4-((4-(4-(oxetan-3-yl)piperazin-1-yl)phenyl)amino)-1,3,5-triazin-2-yl)-2-((tetrahydro-2H-pyran-4-yl)oxy)benzonitrile]: the inhibition at off-target kinases [1] (read-out: % Inhibition 1) was 28%; at off-target kinases [1] (read-out: % Inhibition 2), 26%; on off-target kinases [1] (read-out: % Inhibition Avg), 27%; on off-target kinases [2] (read-out: % Inhibition 1), -1%; at off-target kinases [2] (read-out: % Inhibition 2), 0%; on off-target kinases [2] (read-out: % Inhibition Avg), -1%. Moreover, the inhibition on off-target kinases [3] (read-out: % Inhibition 1) came to 1%; at off-target kinases [3] (read-out: % Inhibition 2), 3%; on off-target kinases [3] (read-out: % Inhibition Avg), 2%; at off-target kinases [4] (read-out: % Inhibition 1), 27%; on off-target kinases [4] (read-out: % Inhibition 2), 31%; at off-target kinases [4] (read-out: % Inhibition Avg) it was 29%. The inhibition at off-target kinases [5] (read-out: % Inhibition 1) was found to be 15%; on off-target kinases [5] (read-out: % Inhibition 2), 11%; at off-target kinases [5] (read-out: % Inhibition Avg) it was 13%; on off-target kinases [6] (read-out: % Inhibition 1) it was 6%; on off-target kinases [6] (read-out: % Inhibition 2), 10%; on off-target kinases [6] (read-out: % Inhibition Avg) it was 8%. The inhibition was found to be 46% at off-target kinases [7] (read-out: % Inhibition 1), 43% on off-target kinases [7] (read-out: % Inhibition 2) and 45% on off-target kinases [7] (read-out: % Inhibition Avg).
